Experimental data taken from patent US20250011330A1, “Imidazo[1,2- a]pyrazine and Imidazo[1,2- a]pyridine Based Tyrosyl-DNA Phosphodiesterase I (TDP1) Inhibitors” (The USA, As Represented by the Secretary, Department of …, priority 2021, published 2025).
Where two headings read alike, the source gives them in different places.

Assays:
TDP2 [1] = target: T1, TDP2 (Homo sapiens (Human), UniProt O95551); assay: gel-based TDP2 fluorescence assay in vitro; type: biochemical; conditions: for IC50: read-out: TDP2 IC50; for inhibition of TDP2, primary screen: 111 μM, preincubation with TDP2 at room temperature overnight
Procedure: (§1) (TDP assay buffer: 50 mM Tris HCl, pH 7.5, 80 mM KCl, 2 mM EDTA, 1 mM DTT, 40 μg/ml BSA and 0.01% Tween-20. TDP1 (20 mg/mL in 25 mM Tris-HCl pH 7.2, 150 mM NaCl, 2 mM tris(2-carboxyethyl)phosphine) with 2 mL of well solution composed of 0.1 M MOPS/HEPES pH 7.5, 10% (w/v) PEG 8000, 20% (v/v) ethylene glycol, 0.03 M sodium fluoride, 0.03 M sodium bromide, 0.03 M sodium iodide, 0.03 M sodium bromide and sealed over […] well solution. AF647 labelling buffer: Tris-HCl (pH 7.2, 25 mM), NaCl (150 mM), and tris(2-carboxyethyl)phosphine hydrochloride (TCEP, 2 mM).)
(§2) (DNA only: Buffer+DMSO. DMSO only: Enzyme+DMSO. Drug: Enzyme+Drug, 25° C., 10 min+DNA, reaction at 25° C., 15 min.)

TDP2 [2] = target: T1, TDP2; assay: TDP2 degrading activity as stated in the description; conditions: list in description
TDP1 [3] = target: T2, TDP1 (Homo sapiens (Human), UniProt Q9NUW8); assay: TDP1 gel-based in vitro fluorescence assay; type: biochemical
Procedure: as §1, §2
Gel images were scanned using a Typhoon FLA 9500 scanner (GE Healthcare) and densitometric analyses were performed using the ImageQuant software (GE Healthcare). The IC50 of TDP1 inhibitors was calculated by comparing the percentage of cleavage product (5′Cy5-[…]-p-3′) to DMSO control.

[4] = test system: human colon cancer cell line HCT116; assay: Synergistic effect with camptothecin (CPT) based on cell viability; conditions: for synergy with camptothecin: list in description; for Synergy Score: with camptothecin (CPT), HCT116, 72 h, SynergyFinder 2.0
Procedure: The synergistic effects of the TDP1 inhibitors with CPT were tested in human colon cancer cell line HCT116 based on cell viability (Table 3, FIGS. 2-5). Cells were first seeded in a 384-well black-clear plate until 30% confluency and then incubated with a serial dilution of CPT at the range of 0-100 nM in the present or the absence of TDP1 inhibitors for 72 h at 37° C. Viable cell numbers were counted from the brightfield images taken by Biotek Cytation 5 (FIGS. 2-3). Fractional affect (Fa) and combination index (Ci) were analyzed with CompuSyn software. Synergistic scores of each TDP1 inhibitors were calculated and collected based on the data analysis from SynergyFinder (FIG. 4). […]

TDP1 [5] = target: T2, TDP1; assay: Degradation assay (western blotting) of TDP1 in HCT116 and HEK293 cells; type: cell-based; conditions: for TDP1 degradation in cells: 200 uM concentration; for TDP1 degrading activity: list in description
Procedure: The degradation effect of the TDP1 inhibitors on TDP1 in human colon cancer cell line HCT116 and embryonic kidney cell line HEK293 were studied. Cells were first seeded in a 6-well plate until 60-80% confluency and then incubated with a serial dilution of TDP1 inhibitors at the range of 25-200 μM for 24-72 h at 37° C. […] Samples were then sonicated at 30% for 10 s and centrifuged for 15 min at 15000 rpm at 4 Celsius. Supernatant were collected and the concentration of total protein were measured by BCA Protein Assay Kit according to its protocols. Four micrograms of total protein for each sample were loaded and TDP1 level were conducted by western blotting.

[6] = Table 8, lead compounds with different linkers
[7] = Table 1, imidazo[1,2-a]pyridin-3-amines, read-out: IC50
[8] = Table 7, HPLC-purified oxime leads
[9] = Table 7, ratio of IC50 TDP2 to TDP1
[10] = Table 8, lead compounds with different linkers, read-out: TDP1 IC50
[11] = Table 9, fluorosulfates and sulfonyl fluorides, read-out: TDP1 IC50
[12] = Table 9, fluorosulfates and sulfonyl fluorides

T1 sequence (O95551 whole entry, species assumed): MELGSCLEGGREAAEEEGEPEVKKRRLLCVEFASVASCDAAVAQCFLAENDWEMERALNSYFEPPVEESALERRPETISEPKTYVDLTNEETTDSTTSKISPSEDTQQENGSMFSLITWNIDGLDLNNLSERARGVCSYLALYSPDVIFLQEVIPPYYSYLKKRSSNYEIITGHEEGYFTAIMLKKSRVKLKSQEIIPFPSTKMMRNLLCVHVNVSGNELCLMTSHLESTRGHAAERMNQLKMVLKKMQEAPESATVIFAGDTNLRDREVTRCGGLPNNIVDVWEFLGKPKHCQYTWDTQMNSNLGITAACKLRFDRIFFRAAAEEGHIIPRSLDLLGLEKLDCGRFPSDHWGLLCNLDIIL
T2 sequence (Q9NUW8 whole entry): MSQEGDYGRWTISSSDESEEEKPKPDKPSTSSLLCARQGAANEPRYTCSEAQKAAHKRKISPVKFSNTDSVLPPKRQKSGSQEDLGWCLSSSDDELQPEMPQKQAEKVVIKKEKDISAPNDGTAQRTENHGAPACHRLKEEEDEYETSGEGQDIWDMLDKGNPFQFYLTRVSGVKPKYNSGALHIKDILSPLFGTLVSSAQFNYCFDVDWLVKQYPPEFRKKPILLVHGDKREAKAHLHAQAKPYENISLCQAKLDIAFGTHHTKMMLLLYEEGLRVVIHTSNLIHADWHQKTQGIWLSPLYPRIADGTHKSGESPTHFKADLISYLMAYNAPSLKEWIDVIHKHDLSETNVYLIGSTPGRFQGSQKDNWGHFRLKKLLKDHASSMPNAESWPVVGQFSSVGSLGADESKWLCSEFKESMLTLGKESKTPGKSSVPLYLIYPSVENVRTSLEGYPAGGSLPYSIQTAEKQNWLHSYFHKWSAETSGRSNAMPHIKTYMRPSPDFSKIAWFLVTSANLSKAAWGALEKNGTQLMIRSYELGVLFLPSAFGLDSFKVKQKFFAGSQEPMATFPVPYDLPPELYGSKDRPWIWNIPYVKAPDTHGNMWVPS

4-((2-(4-(2-((4-(5-((λ^2-Azaneylidene)-λ^3-methyl)pyridin-2-yl)phenyl)methoxy)ethyl)phenyl)imidazo[1,2-a]pyridin-3-yl)amino)benzoic acid [XZ727]
IC50 (TDP2 [1]; [6]): 70.5 ± 13.5 µM | TDP2 degrading activity (TDP2 [2]): exhibit TDP2 degrading activity

CS(=O)(=O)c1ccc2nc(-c3ccccc3)c(Nc3ccc([N+](=O)[O-])cc3)n2c1 [Compound 6u, 6-(Methylsulfonyl)-N-(4-nitrophenyl)-2-phenylimidazo[1,2-a]pyridin-3-amine]
IC50 (TDP1 [3]; [7]): 16.1 µM | synergy with camptothecin [4]: exhibit synergy with camptothecin

O=C(O)c1ccc(Nc2c(-c3ccccc3)nc3cnccn23)cc1 [Compound 7b, 4-((2-Phenylimidazo[1,2-a]pyrazin-3-yl)amino)benzoic acid]
IC50 (TDP2 [1]; Table 3): > 100 µM | Synergy Score [4]: 3

O=C(O)c1ccc(Nc2c(-c3ccccc3)nc3ccccn23)cc1 [Compound 8a, 4-((2-Phenylimidazo[1,2-a]pyridin-3-yl)amino)benzoic acid]
IC50 (TDP2 [1]; Table 3): > 100 µM | Synergy Score [4]: −1.3

O=C(O)c1ccc(Nc2c(-c3ccccc3)nc3ccc(C(=O)O)cn23)cc1 [Compound 8m, 3-((4-Carboxyphenyl)amino)-2-phenylimidazo[1,2-a]pyridine-6-carboxylic acid]
IC50 (TDP1 [3]; [7]): 0.9 µM | synergy with camptothecin [4]: exhibit synergy with camptothecin

O=C(O)c1ccc(Nc2c(-c3ccccc3)nc3ccc(Br)cn23)cc1 [Compound 8o, 4-((6-Bromo-2-phenylimidazo[1,2-a]pyridin-3-yl)amino)benzoic acid]
IC50 (TDP1 [3]; [7]): 1.6 µM | synergy with camptothecin [4]: exhibit synergy with camptothecin

CS(=O)(=O)c1ccc2nc(-c3ccccc3)c(Nc3ccc(C(=O)O)cc3)n2c1 [Compound 8q, 4-((6-(Methylsulfonyl)-2-phenylimidazo[1,2-a]pyridin-3-yl)amino)benzoic acid]
TDP1 Selectivity (TDP1 [3]; ratio of IC50 values of TDP1/TDP2): 26 | Synergy Score [4]: 9.5

O=C(O)c1ccc(Nc2c(-c3ccccc3)nc3cc(C(=O)O)ccn23)cc1 [Compound 8s, 3-((4-Carboxyphenyl)amino)-2-phenylimidazo[1,2-a]pyridine-7-carboxylic acid]
IC50 (TDP2 [1]; Table 3): > 100 µM | synergy with camptothecin [4]: exhibit synergy with camptothecin | Synergy Score [4]: 20.7

O=C(O)c1ccc(Nc2c(-c3ccccc3)nc3ccccn23)cc1C(=O)O [Compound 10b, 4-((2-Phenylimidazo[1,2-a]pyridin-3-yl)amino)phthalic acid]
IC50 (TDP2 [1]; Table 3): > 100 µM | synergy with camptothecin [4]: exhibit synergy with camptothecin | Synergy Score [4]: 17.9

O=C(O)c1ccc(Nc2c(-c3ccccc3O)nc3cnccn23)cc1 [Compound M7]
synergy with camptothecin [4]: exhibit synergy with camptothecin | Synergy Score [4]: 15.6

O=C(O)c1ccc(Nc2c(-c3ccccc3)nc3ccccn23)cc1 [XZ615]
IC50 (TDP2 [1]; [8]): > 100 µM | IC50 (TDP2 [1]; [6]): > 100 µM | TDP1 degradation in cells (TDP1 [5]): does not | TDP1 degrading activity (TDP1 [5]): exhibit TDP1 degrading activity

O=C(O)c1ccc(Nc2c(-c3ccccc3)nc3cc(-c4ccccc4)ccn23)cc1 [XZ664, 4-((2,7-Diphenylimidazo[1,2-a]pyridin-3-yl)amino)benzoic acid]
IC50 (TDP2 [1]; Table 3): > 100 µM | IC50 (TDP2 [1]; [8]): > 100 µM | IC50 (TDP2 [1]; [6]): > 100 µM | Synergy Score [4]: 9.1 | TDP1 degradation in cells (TDP1 [5]): shows TDP1 degradation | TDP1 degrading activity (TDP1 [5]): exhibit TDP1 degrading activity

O=C(O)c1ccc(Nc2c(-c3ccc(CO/N=C/c4ccc(N5CCCC5=O)cc4)cc3)nc3cc(-c4ccccc4)ccn23)cc1 [XZ703, (E)-4-((2-(4-((((4-(2-Oxopyrrolidin-1-yl)benzylidene)amino)oxy)methyl)phenyl)-7-phenylimidazo[1,2-a]pyridin-3-yl)amino)benzoic acid]
FC (fold change) (TDP1 [3]; [9]): 1 | IC50 (TDP1 [3]; purified oximes and SMM leads, read-out: TDP1 IC50): ~10 µM | IC50 (TDP2 [1]; [8]): 10.9 ± 1.1 µM | IC50 (TDP2 [1]; purified oximes): ~10 µM | TDP2 degrading activity (TDP2 [2]): exhibit TDP2 degrading activity

N#Cc1ccc(-c2ccc(/C=N/OCc3ccc4nc(-c5ccccc5)c(Nc5ccc(C(=O)O)cc5)n4c3)cc2)nc1 [XZ706, (E)-4-((6-((((4-(5-cyanopyridin-2-yl)benzylidene)amino)oxy)methyl)-2-phenylimidazo[1,2-a]pyridin-3-yl)amino)benzoic acid]
IC50 (TDP1 [3]; Table 7, HPLC-purified oxime leads, read-out: TDP1 IC50): 17.4 ± 3.2 µM | FC (fold change) (TDP1 [3]; [9]): 4 | loss of TDP1 potency relative to 102 (TDP1 [3]; fold loss versus 102): about 2 fold | IC50 (TDP2 [1]; [8]): 62.1 ± 10.1 µM | synergy with camptothecin [4]: exhibit synergy with camptothecin

N#Cc1ccc(-c2ccc(/C=N\OCc3ccc(-c4nc5cc(-c6ccccc6)ccn5c4Nc4ccc(C(=O)O)cc4)cc3)cc2)nc1 [XZ708, (Z)-4-((2-(4-((((4-(5-Cyanopyridin-2-yl)benzylidene)amino)oxy)methyl)phenyl)-7-phenylimidazo[1,2-a]pyridin-3-yl)amino)benzoic acid]
FC (fold change) (TDP1 [3]; [9]): >18 | IC50 (TDP2 [1]; [8]): > 100 µM | synergy with camptothecin [4]: exhibit synergy with camptothecin

N#Cc1ccc(-c2ccc(Cn3cc(-c4ccc5nc(-c6ccccc6)c(Nc6ccc(C(=O)O)cc6)n5c4)nn3)cc2)nc1 [XZ723, 4-((6-(1-(4-(5-Cyanopyridin-2-yl)benzyl)-1H-1,2,3-triazol-4-yl)-2-phenylimidazo[1,2-a]pyridin-3-yl)amino)benzoic acid]
IC50 (TDP1 [3]; [10]): 66.4 ± 3.7 µM | FC (fold change) (TDP1 [3]; Table 8, ratio of IC50 TDP2 to TDP1): 1 | IC50 (TDP2 [1]; [6]): 69.1 ± 11.8 µM | TDP2 degrading activity (TDP2 [2]): exhibit TDP2 degrading activity

N#Cc1ccc(-c2ccc(CO/N=C/c3ccc(-c4nc5ccccn5c4Nc4ccc(C(=O)O)cc4)cc3)cc2)nc1 [XZ724]
IC50 (TDP1 [3]; [10]): > 100 µM | IC50 (TDP2 [1]; [6]): > 100 µM | TDP1 degrading activity (TDP1 [5]): exhibit TDP1 degrading activity

N#Cc1ccc(-c2ccc(CO/N=C/c3ccc(-c4nc5cc(-c6ccccc6)ccn5c4Nc4ccc(C(=O)O)cc4)cc3)cc2)nc1 [XZ725]
IC50 (TDP1 [3]; [10]): 25.6 ± 4.05 µM | IC50 (TDP2 [1]; [6]): > 100 µM | synergy with camptothecin [4]: exhibit synergy with camptothecin | TDP1 degrading activity (TDP1 [5]): exhibit TDP1 degrading activity

O=C(O)c1ccc(N(c2c(-c3ccccc3OS(=O)(=O)F)nc3cc(-c4ccccc4)ccn23)S(=O)(=O)F)cc1 [XZ731, 4-((Fluorosulfonyl)(2-(2-((fluorosulfonyl)oxy)phenyl)-7-phenylimidazo[1,2-a]pyridin-3-yl)amino)benzoic acid]
inhibition of TDP1, primary screen (TDP1 [3]; 111 μM, preincubation with TDP1 at room temperature overnight): inhibition | IC50 (TDP1 [3]; [11]): 22.7 µM | selectivity compared with TDP2, secondary screen (TDP1 [3]; preincubation overnight at room temperature): 2 fold | inhibition, secondary screen (TDP1 [3]; preincubation with TDP overnight at room temperature): μM inhibition | inhibition of TDP1, secondary screen (TDP1 [3]; room temperature, preincubation 10 minutes): no inhibition | inhibition of TDP2, primary screen (TDP2 [1]): inhibition | IC50 (TDP2 [1]; [12]): 45.5 µM | TDP2 degrading activity (TDP2 [2]): exhibit TDP2 degrading activity

O=C(O)c1ccc(Nc2c(-c3ccccc3)nc3ccc(OS(=O)(=O)F)cn23)cc1 [XZ732, 4-((6-((Fluorosulfonyl)oxy)-2-phenylimidazo[1,2-a]pyridin-3-VA)amino)benzoic acid]
IC50 (TDP1 [3]; [11]): > 100 µM | inhibition of TDP2, primary screen (TDP2 [1]): inhibition | IC50 (TDP2 [1]; [12]): 65.8 µM | TDP2 degrading activity (TDP2 [2]): exhibit TDP2 degrading activity

O=S(=O)(F)c1ccc(Nc2c(-c3ccccc3)nc3ccccn23)cc1 [XZ734, 4-((2-Phenylimidazo[1,2-a]pyridin-3-yl)amino)benzenesulfonyl fluoride]
IC50 (TDP1 [3]; [11]): > 100 µM | IC50 (TDP2 [1]; [12]): > 100 µM | TDP1 degradation by covalent inhibitors (TDP1 [5]; FIG. 39): degrade TDP1 | TDP1 degrading activity (TDP1 [5]): exhibit TDP1 degrading activity
